The target in data set [1] is porcine pancreatic secreted PLA2 (pps PLA2) (Sus scrofa, UniProt P00592). The following applies: reported activity data; cited from earlier work.
In data set [2] the target is human pancreatic secreted PLA2 (hps PLA2) (Homo sapiens, UniProt P04054). The following applies: reported activity data; cited from earlier work.
For data set [3], the system named is wild-type C57BL/6 mice on high fat/high sucrose diet. The data set is described as follows: Fasting serum glucose in mice on high fat/high sucrose diabetogenic diet (Example 5B). As to conditions: low dose 25 mg/kg/day (group 2). The format is in vivo. The procedure: (§1) ILY-4001 (FIG. 2) was evaluated as a PLA2 IB inhibitor in a set of experiments using wild-type mice and genetically deficient PLA2 (−/−) mice (also referred to herein as PLA2 knock-out (KO) mice). In these experiments, wild-type and PLA2 (−/−) mice were maintained on a high fat/high sucrose diet, details of which are described below.
(§2) Briefly, four groups were set up, each having six mice. Three of the groups included six wild-type PLA2 (+/+) mice in each group (eighteen mice total), and one of the groups included six genetically deficient PLA2 (−/−) mice. One of the wild-type groups was used as a wild-type control group, and was not treated with ILY-4001. The other two wild-type groups were treated with ILY-4001—one group at a lower dose (indicated as “L” in Table 1) of 25 mg/kg/day, and the other at a higher dose (indicated as “H” in Table 1) of 90 mg/kg/day. The group comprising the PLA2 (−/−) mice was used as a positive control group.
The experimental protocol used in this study was as follows. […]
Body weight measurements were taken for all animals in all treatment and control groups at the beginning of the treatment period and at 4 weeks and 10 weeks after initiation of the study. […] Cholesterol and triglyceride levels were determined from blood draws taken at the beginning of the treatement (baseline) and at ten weeks. […]

Data set [4] is described as follows: Pharmokinetic study, bioavailability (Example 6C). As to conditions: ORAL 30 mg/kg. Type of data set: in vivo, mice. From the text:
This example characterized ILY-4001 [2-(3-(2-amino-2-oxoacetyl)-1-(biphenyl-2-ylmethyl)-2-methyl-1H-indol-4-yloxy)acetic acid], alternatively referred to herein as methyl indoxam, with respect to activity, as determined by IC50 assay (Example 6A), with respect to cell absorbtion, as determined by in-vitro Caco-2 assay (Example 6B) and with respect to bioavailability, as determined using in-vivo mice studies (Example 6C).
This example evaluated the bioavailability of ILY-4001 [2-(3-(2-amino-2-oxoacetyl)-1-(biphenyl-2-ylmethyl)-2-methyl-1H-indol-4-yloxy)acetic acid], alternatively referred to herein as methyl indoxam. […]
Bioavailability was calculated as a ratio of AUC-oral/AUC-intravenous (IV). To determine this ratio, a first set of subject animals were given a measured intravenous (IV) dose of ILY-4001, followed by a determination of ILY-4001 levels in the blood at various time points after administration (e.g., 5 minutes through 24 hours). Another second set of animals was similarly dosed using oral administration, with blood levels of ILY-4001 determined at various time points after administration (e.g., 30 minutes through 24 hours). The level of ILY-4001 in systemic circulation were determined by generally accepted methods (for example as described in Evans, G., A Handbook of Bioanalysis and Drug Metabolism. Boca Raton, CRC Press (2004)). […]

The target in another data set is human PLA2 IB enzyme (Homo sapiens, UniProt P04054). As to conditions: pyrene substrate release from vesicles (Singer, Ghomashchi et al. 2002); read-out: IC50 versus the human PLA2 IB enzyme; cited from earlier work.
Data set [5] relates to wild-type C57BL/6 mice on high fat/high sucrose diet. The data set is described as follows: Body weight gain in mice on high fat/high sucrose diabetogenic diet (Example 5A). The format is in vivo. The following applies: for body weight gain compared to the wild-type control group: week 4 and week 10. On the procedure:
as §1, §2
(§3) The experimental protocol used in this study was as follows. The four groups of mice, including wild type and isogenic PLA2 (−/−) C57BL/J mice were acclimated for three days on a low fat/low carbohydrate diet. After the three day acclimation phase, the animals were fasted overnight and serum samples taken to establish baseline plasma cholesterol, triglyceride, and glucose levels, along with baseline body weight. The mice in each of the treatment groups were then fed a high fat/high sucrose diabetogenic diet (Research Diets D12331). 1000 g of the high fat/high sucrose D12331 diet was composed of casein (228 g), DL-methionine (2 g), maltodextrin 10 (170 g), sucrose (175 g), soybean oil (25 g), hydrogenated coconut oil (333.5 g), mineral mix S10001 (40 g), sodium bicarbonate (10.5 g), potassium citrate (4 g), vitamin mix V10001 (10 g), and choline bitartrate (2 g). This diet was supplemented with ILY-4001 treatments such that the average daily dose of the compound ingested by a 25 g mouse was: 0 mg/kg/day (wild-type control group and PLA2 (−/−) control group); 25 mg/kg/day (low-dose wild-type treatment group), or 90 mg/kg/day (high-dose wild-type treatment group). The animals were maintained on the high fat/high sucrose diet, with the designated ILY-4001 supplementation, for a period of ten weeks.
Body weight measurements were taken for all animals in all treatment and control groups at the beginning of the treatment period and at 4 weeks and 10 weeks after initiation of the study. (See Example 5A). Blood draws were also taken at the beginning of the treatment period (baseline) and at 4 weeks and 10 weeks after initiation of the study, in order to determine fasting glucose (See Example 5B). Cholesterol and triglyceride levels were determined from blood draws taken at the beginning of the treatement (baseline) and at ten weeks. (See Example 5C).
In the study generally described above in Example 5, body weight measurements were taken for all animals in all treatment and control groups at the beginning of the treatment period and at 4 weeks and 10 weeks after initiation of the study.

The next data set deals with Caco-2 cells. The data set is described as follows: Caco-2 permeability study (Example 6B). Type of data set: in vitro ADME, human. On the procedure: The culture medium was refreshed every 48 hours.
The target in a further data set is mouse PLA2 IB enzyme (Mus musculus, UniProt Q9Z0Y2). The following applies: pyrene substrate release from vesicles (Singer, Ghomashchi et al. 2002); read-out: IC50 versus the mouse PLA2 IB enzyme; cited from earlier work.
The next data set can be described thus: Stability at low pH. Type of data set: physicochemical. The following applies: predicted to survive passage through the stomach.
Data set [6] relates to wild-type C57BL/6 mice on high fat/high sucrose diet. The data set is described as follows: Serum cholesterol and triglycerides in mice on high fat/high sucrose diabetogenic diet (Example 5C). The following applies: 10 weeks. The format is in vivo. On the procedure: as §1, §2, §3
Body weight measurements were taken for all animals in all treatment and control groups at the beginning of the treatment period and at 4 weeks and 10 weeks after initiation of the study. (See Example 5A). Blood draws were also taken at the beginning of the treatment period (baseline) and at 4 weeks and 10 weeks after initiation of the study, in order to determine fasting glucose (See Example 5B). Cholesterol and triglyceride levels were determined from blood draws taken at the beginning of the treatement (baseline) and at ten weeks. […]

Setting [7] is: high dose 90 mg/kg/day (group 3).
Setting [8] is: low dose 25 mg/kg/day (group 2).

These results are taken from patent US20080051447A1, “Treatment Of Hypercholesterolemia, Hypertriglyceridemia And Cardiovascular-Related Conditions Using Phospholipase-A2 Inhibitors” (priority 2005, published 2008).

The IC50 is the midpoint of a concentration-inhibition curve.

Bounds are passed on as bounds.

Sequence of human pancreatic secreted PLA2 (hps PLA2) (P04054 23-148): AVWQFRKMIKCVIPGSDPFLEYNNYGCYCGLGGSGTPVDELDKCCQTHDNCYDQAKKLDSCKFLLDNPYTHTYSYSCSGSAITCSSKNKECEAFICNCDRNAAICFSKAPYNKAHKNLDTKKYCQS
Sequence of human PLA2 IB enzyme (P04054 23-148): as above
Sequence of porcine pancreatic secreted PLA2 (pps PLA2) (P00592 23-146): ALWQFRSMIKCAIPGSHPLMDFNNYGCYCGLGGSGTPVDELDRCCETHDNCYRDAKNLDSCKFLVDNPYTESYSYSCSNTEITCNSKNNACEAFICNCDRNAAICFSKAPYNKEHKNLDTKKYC
Sequence of mouse PLA2 IB enzyme (Q9Z0Y2 23-146): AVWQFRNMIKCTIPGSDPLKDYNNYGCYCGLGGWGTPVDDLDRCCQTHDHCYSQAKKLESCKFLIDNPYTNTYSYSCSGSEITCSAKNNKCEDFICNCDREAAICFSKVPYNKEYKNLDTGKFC

As to `Cc1c(CC(=O)NN)c2cc(OCCCC(=O)O)ccc2n1Cc1ccccc1`, in [1], the “IC50 pps PLA2” value is “no activity”. Moreover, the “IC50 hps PLA2” value in data set [2] is listed as “no activity”.
For `Cc1c(C(=O)C(N)=O)c2c(/C=C/C(=O)O)cccc2n1Cc1ccccc1`, the 50% inhibitory concentration (IC50) in [2] is greater than 100000 nM.
As to `Cc1c(C(=O)C(N)=O)c2c(CCC(=O)O)cccc2n1Cc1ccccc1`, the IC50 in [2] is greater than 100000 nM.
For `Cc1c(C(=O)C(N)=O)c2c(OCC(=O)O)cccc2n1Cc1ccccc1-c1ccccc1` [ILY-4001, 2-(3-(2-amino-2-oxoacetyl)-1-(biphenyl-2-ylmethyl)-2-methyl-1H-indol-4-yloxy)acetic acid], the values for the fasting glucose levels result in [3] (week four) and in data set [3] (week ten) were “moderately beneficial effect” and “a beneficial effect was not observed”, respectively. In addition, in data set [4], the “level of non-absorption from the GI tract into systemic circulation” value was roughly 72%. In addition, the half-inhibitory concentration (IC50) was roughly 200 nM at human PLA2 IB enzyme and roughly 150 nM at mouse PLA2 IB enzyme. The “body weight gain relative to PLA2 (−/−) mice” value is recorded as “modulated to an extent comparable to that achieved in the PLA2 (−/−) mice” in [5] (25 mg/kg/d (low-dose) in diet, ten weeks); “modulated to an extent approaching that achieved in the PLA2 (−/−) mice” in data set [5] (25 mg/kg/d in diet, four weeks); “modulated to an extent approaching that achieved in the PLA2 (−/−) mice” in [5] (90 mg/kg/d in diet, four weeks). Also, the “body weight gain compared to the wild-type control group” value in [5] (25 mg/kg/d in diet) and in data set [5] (90 mg/kg/d in diet) was “significantly reduced body weight gains” in each case. In the data set with Caco-2 cells (Caco-2 monolayers, apical to basolateral, 50 ug/ml), the apparent permeability result was “around 1.66×10^−7 cm/s”. In addition, the “absorbtion from the GI lumen” value in the data set with Caco-2 cells (based on Caco-2 assays and pharmokinetic studies) is recorded as “relatively low absorbtion”. The “stability at low pH” value in the data set “Stability at low pH” is recorded as “stable at low pH”. The “plasma levels of cholesterol” value in data set [6] (setting [7]) and in data set [6] (setting [8]) was “substantially reduced” each time. Moreover, the “plasma levels of triglycerides” value in data set [6] (setting [7]) and in [6] (setting [8]) was “substantially reduced” in each case.
Turning to Lucifer Yellow [reference compound], in the data set with Caco-2 cells (Caco-2), the “apparent permeability (paracellular transport control)” value is “around 2.82×10^−7+/−0.37×10^−7 cm/s”.
